Laboratory results: US8680242B2, “Plasminogen receptor, polypeptides and antibodies thereof” (priority 2008, dated 2014)
Ends that are not written are not given here.

Tests used:
Plasminogen = biological target: T1, Plasminogen (Homo sapiens, UniProt P00747); experiment: Plasminogen binding to BSA-coupled C-terminal Plg-RKT peptide coated on microtiter wells, detected with anti-plasminogen MAb
T1 construct: host or cells: peptide is synthetic
Source text: Our isolation method was consistent with exposure of the carboxyl-terminus of Plg-RKT (with its carboxyl-terminal lysine) on the cell surface and also with the ability of the carboxyl-terminal domain to bind to plasminogen. For verification, we tested whether a synthetic peptide, corresponding to the C-terminus of Plg-RKT could bind plasminogen. The peptide, CEQSKLFSDK (SEQ ID NO: 33) corresponding to the ten C-terminal amino acids of Plg-RKT with cysteine substituted for R138) was coupled to bovine serum albumin (BSA) and then coated onto wells of microtiter plates at 10 μg/ml. The wells were blocked with 5% BSA. Plasminogen (0.2 μM) was incubated with the wells, followed by our anti-plasminogen MAb^36 and detection with HRP-conjugated goat anti-mouse IgG (Biosource, Camarillo, Calif.). Plasminogen bound to the peptide in a concentration dependent manner with 50% maximal binding achieved at a plasminogen concentration of ˜10 nM. The binding was specific because it was blocked in the presence of epsilon-aminocaproic acid (EACA), consistent with the ability of EACA to inhibit plasminogen binding to differentiated Hoxa9-ER4 cells. […] In controls for the detection method, O.D.490 values obtained using an isotype control antibody or in the absence of added plasminogen were <5% of the values for plasminogen binding to the BSA-coupled peptide detected with anti-plasminogen MAb.

biotinylated plasminogen = biological target: T2, biotinylated plasminogen (Homo sapiens, UniProt P00747); experiment: Direct binding of biotinylated plasminogen to immobilized peptide (streptavidin-HRP)
T2 construct: host or cells: peptide is synthetic
Method: (§1) Mab36Al2 or control rat IgG2A was incubated with the Plg-RKT polypeptide, CEQSKLFSDK (SEQ ID NO: 33), coupled to BSA and immobilized on microtiter wells. In these assays, 200 nM biotinylated plasminogen was then added and plasminogen binding was detected with streptavidin-HRP.
(§2) In other assays to define the ligand recognition specificity of Plg-RKT for plasminogen. the Plg-RKT polypeptide, CEQSKLFSDK (SEQ ID NO: 33), was coupled to microtiter wells. Plasminogen was directly biotinylated and then incubated with the immobilized peptide and detected with streptavidin-HRP, as above. […] (K1-3 is comprised of the plasminogen amino acid sequences, Tyr^79-Val^337 or Tyr^79-Val^353. K4 is contained within the plasminogen amino acid sequences, Val^354-Ala^439. K5-PD is contained within the plasminogen amino acid sequences, Val^442-Asn^790 and contains kringle 5 as well as the latent protease domain.)

[1] = system: plasminogen binding to the Plg-RKT polypeptide, CEQSKLFSDK (SEQ ID NO: 33); experiment: Inhibition of biotinylated plasminogen binding to immobilized Plg-RKT C-terminal peptide (streptavidin-HRP); parameters: species or system mouse
Method: as §1
(§3) We tested the ability of a peptide, CEQSRFFIDK (SEQ ID NO: 34), corresponding to the C terminus of human Plg-RKT (residues 139-147), to inhibit the binding of biotinylated-plasminogen to the C-terminal peptide CEQSKLFSDK (SEQ ID NO: 33), of mouse Plg-RKT when CEQSKLFSDK (SEQ ID NO: 33), was coupled to BSA and immobilized to microtiter plates as described above. […] Thus, the interaction of plasminogen with the C-terminal peptide of Plg-RKT requires the presence of a C-terminal lysine residue.
as §2

[2] = biological target: T3, plasminogen binding to the Plg-RKT polypeptide, CEQSKLFSDK (SEQ ID NO: 33) (Mus musculus, UniProt Q9D3P8, R138C); experiment: as above; settings: plasminogen domains from elastase digestion
T3 construct: host or cells: peptide is synthetic
Method: as §1, §3, §2

T1 sequence (P00747 20-810 limits assumed): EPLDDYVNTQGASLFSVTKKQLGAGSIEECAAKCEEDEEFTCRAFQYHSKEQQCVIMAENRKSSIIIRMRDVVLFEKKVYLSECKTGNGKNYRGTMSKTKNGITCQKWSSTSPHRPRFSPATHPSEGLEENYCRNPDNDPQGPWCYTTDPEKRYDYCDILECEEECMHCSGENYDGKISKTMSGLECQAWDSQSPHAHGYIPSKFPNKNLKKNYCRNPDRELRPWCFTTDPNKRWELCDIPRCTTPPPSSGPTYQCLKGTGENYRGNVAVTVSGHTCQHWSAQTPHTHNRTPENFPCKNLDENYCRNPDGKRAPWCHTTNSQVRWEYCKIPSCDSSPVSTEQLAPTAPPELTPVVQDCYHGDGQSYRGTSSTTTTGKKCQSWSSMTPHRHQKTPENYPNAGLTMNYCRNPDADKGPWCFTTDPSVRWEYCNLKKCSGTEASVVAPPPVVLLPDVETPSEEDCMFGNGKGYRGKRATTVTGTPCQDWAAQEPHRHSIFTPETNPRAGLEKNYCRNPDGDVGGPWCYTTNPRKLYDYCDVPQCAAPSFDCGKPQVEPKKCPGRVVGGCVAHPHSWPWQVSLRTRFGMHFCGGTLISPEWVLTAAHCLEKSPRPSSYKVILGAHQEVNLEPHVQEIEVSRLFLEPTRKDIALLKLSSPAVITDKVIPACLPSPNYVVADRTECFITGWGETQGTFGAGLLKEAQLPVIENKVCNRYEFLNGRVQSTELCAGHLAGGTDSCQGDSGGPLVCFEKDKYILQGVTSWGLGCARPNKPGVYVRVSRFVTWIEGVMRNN
T2 sequence (P00747 20-810 limits assumed): as above

Row | Molecule | inhibition of plasminogen binding to immobilized CEQSKLFSDK (in words) [1] | order of effectiveness in inhibiting plasminogen interaction with immobilized CEQSKLFSDK [2] | other results
1 | NCCCCCC(=O)O [epsilon-aminocaproic acid] | – | – | effect on plasminogen binding to the peptide CEQSKLFSDK (Plasminogen; in the presence of EACA): blocked
2 | CEQSKLFSDK [CEQSKLFSDK] | – | – | biotinylated-Plg binding to the immobilized peptide (biotinylated plasminogen): concentration-dependent manner
3 | CEQSRFFIDA [mutant peptide with the C-terminal K replaced with A, reference compound] | not affected | – | –
4 | CEQSRFFIDK [CEQSRFFIDK] | inhibited in a dose-dependent manner | – | –
5 | CEQSRFFIDK [peptide with R142 replaced with K, human C-terminal peptide with R142 replaced with K] | more effective competitor | – | –
6 | KDSFLKSQEC (listed as Mus musculus) [reverse peptide control, reference compound] | – | – | nonspecific plasminogen binding, relative to binding to CEQSKLFSDK (Plasminogen; control peptide on wells): < 10%; biotinylated-Plg binding to the immobilized peptide (biotinylated plasminogen): no biotinylated-Plg binding
7 | Plg: plasminogen, precursor of plasmin with five kringle domains and a serine protease domain | – | Plg>K1-3>K5>K4 | –
8 | K1-3: plasminogen fragment Tyr79-Val337 or Tyr79-Val353, obtained by elastase digestion (protein) YLSECKTGNGKNYRGTMSKTKNGITCQKWSSTSPHRPRFSPATHPSEGLEENYCRNPDNDPQGPWCYTTDPEKRYDYCDILECEEECMHCSGENYDGKISKTMSGLECQAWDSQSPHAHGYIPSKFPNKNLKKNYCRNPDRELRPWCFTTDPNKRWELCDIPRCTTPPPSSGPTYQCLKGTGENYRGNVAVTVSGHTCQHWSAQTPHTHNRTPENFPCKNLDENYCRNPDGKRAPWCHTTNSQVRWEYCKIPSCDSSPV | – | Plg>K1-3>K5>K4 | –
9 | K5: plasminogen fragment within Val442-Asn790, kringle 5 and the latent protease domain (protein) VVAPPPVVLLPDVETPSEEDCMFGNGKGYRGKRATTVTGTPCQDWAAQEPHRHSIFTPETNPRAGLEKNYCRNPDGDVGGPWCYTTNPRKLYDYCDVPQCAAPSFDCGKPQVEPKKCPGRVVGGCVAHPHSWPWQVSLRTRFGMHFCGGTLISPEWVLTAAHCLEKSPRPSSYKVILGAHQEVNLEPHVQEIEVSRLFLEPTRKDIALLKLSSPAVITDKVIPACLPSPNYVVADRTECFITGWGETQGTFGAGLLKEAQLPVIENKVCNRYEFLNGRVQSTELCAGHLAGGTDSCQGDSGGPLVCFEKDKYILQGVTSWGLGCARPNKPGVYVRVSRFVTWIEGVMRN | – | Plg>K1-3>K5>K4 | –
